Data: BindingDB's records for doi:10.1021/jm0603116 (Infinity Pharmaceuticals, 2006)

Target: Endoplasmin (Canis lupus familiaris, UniProt P41148)
Test: Inhibition of BODIPY-AG binding to dog Grp94

Chain of Endoplasmin (P41148 whole entry): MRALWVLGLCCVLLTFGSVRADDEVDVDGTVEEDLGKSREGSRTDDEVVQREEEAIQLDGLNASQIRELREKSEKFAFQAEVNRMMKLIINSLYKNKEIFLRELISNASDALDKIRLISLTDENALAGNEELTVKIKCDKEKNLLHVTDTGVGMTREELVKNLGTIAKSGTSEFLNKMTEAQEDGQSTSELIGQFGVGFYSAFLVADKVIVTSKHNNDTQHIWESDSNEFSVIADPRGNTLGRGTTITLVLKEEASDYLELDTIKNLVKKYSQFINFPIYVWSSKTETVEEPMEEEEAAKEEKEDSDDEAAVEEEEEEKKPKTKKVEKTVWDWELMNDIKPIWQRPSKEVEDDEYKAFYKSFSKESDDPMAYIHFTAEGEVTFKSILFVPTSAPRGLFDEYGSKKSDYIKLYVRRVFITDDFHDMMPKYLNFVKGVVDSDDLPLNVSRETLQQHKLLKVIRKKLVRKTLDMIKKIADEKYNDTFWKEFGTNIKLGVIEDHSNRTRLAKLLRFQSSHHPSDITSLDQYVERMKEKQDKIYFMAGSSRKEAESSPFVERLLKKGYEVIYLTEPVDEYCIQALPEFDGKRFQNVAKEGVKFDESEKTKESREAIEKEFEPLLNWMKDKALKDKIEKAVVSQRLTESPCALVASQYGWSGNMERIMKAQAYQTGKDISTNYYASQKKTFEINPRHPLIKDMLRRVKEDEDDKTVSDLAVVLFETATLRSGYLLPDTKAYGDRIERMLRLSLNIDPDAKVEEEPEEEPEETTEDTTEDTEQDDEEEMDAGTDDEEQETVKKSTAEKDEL

## CO[C@H]1C=CC=C(C)C(=O)Nc2cc(O)c(N)c(c2O)C=C(C)C[C@H](OC)[C@H](O)[C@@H](C)/C=C(\C)[C@@H]1OC(N)=O [17-amino-17-demethoxygeldanamycin]
  EC50: 48 nM
